From patent publication US9365618B2, “Synthetic peptide that induces expression of TNF receptor 2 and use thereof” (TOAGOSEI CO. LTD., priority 2011, dated 2016)
Where no end group is shown, it is not given here.

Test system: TNFR2
Test: TNFR2 expression-inducing activity against neuroblasts (neuro-2a, fluorescent antibody technique)
Assay type: cell-based, mouse
Conditions: retinoic acid-differentiated neuro-2a cells, peptide 5 μM, two days incubation, control group set as 1
Protocol: With respect to each sample obtained in Example 1, the TNFR2 expression-inducing activity was tested against neuroblasts. The control group was supplied with no peptides. The test details are described below.
As the cells under test, a cell line (neuro-2a) established from a commercial mouse neuroblastoma was used. The cells were cultured beforehand in a DMEM medium (i.e., a Dulbecco MEM (DMEM medium, a Gibco product) containing 10% fetal bovine serum (FBS, a Gibco product), 2 mM of L-glutamine, 50 unit/mL of penicillin, and 50 μg/mL of streptomycin), and the number of cells per well in a 96-hole(well) plate was adjusted to approximately 5×10^3. The volume of the medium here was 100 μL/well. […]
Subsequently, the stock solution of one of the samples was added to the wells for each sample group to a peptide concentration in each well of 5 μM. […] After samples (synthetic peptides) were added as described above and continuously incubated further for two days, the expression/induction of TNFR1 and TNFR2 was evaluated according to the fluorescent antibody technique in the same manner as Example 2.
With the level of TNFR1 expression (i.e. fluorescence intensity) of the control group set as 1, relative values are shown. […] With the level of TNFR2 expression (i.e. fluorescence intensity) of the control group set as 1, relative values are shown.

KKRTLRKNDRKKR (KKRTLRKNDRKKR-NH2; listed as Homo sapiens) [Sample 17, NoLS of human LIMK2]
TNFR2 expression level (relative fluorescence intensity): at least 1.9
